In brackets after ≈: the same amount, converted by molar mass.
Tests used:
[1] = Dissociation constant, pKa of the compound; type: physicochemical
[2] = Stability in aqueous buffer assessed as hydrolysis half life; type: physicochemical
Zone of skin = test: Drug level in mouse skin; type: ADME, tissue-based; conditions: in vitro
[3] = Permeability across hairless mouse skin from isopropyl myristate; type: ADME, tissue-based, Zone of skin; conditions: read-out: permeability (converted)
[4] = Solubility in isopropyl myristate; type: physicochemical
[5] = Partition coefficient, log K between isopropyl myristate and pH 4.0 buffer; type: ADME; conditions: isopropyl myristate/pH 4.0 buffer

SMILES | pKa [1] | half-life [2] [min] | Drug uptake (Zone of skin) [µmol] | Papp [3] [×10⁻⁶ cm/s] | solubility [4] [mM] | log K [5]
COC(=O)N(COC(=O)[C@@H](C)c1ccc2cc(OC)ccc2c1)c1ccccc1 | 4.2 | 120 |  |  |  | 
COc1ccc2cc([C@H](C)C(=O)O)ccc2c1 [NAPROXEN] |  |  | 2.71 |  |  | 
COC(=O)N(C)COC(=O)C(C)c1ccc(CC(C)C)cc1 (centres undefined) | 4.41 | 4.11 |  |  |  | 

Further lines, results first:

pKa [1] | half-life [2] [min] | Drug uptake (Zone of skin) [µmol] | Papp [3] [×10⁻⁶ cm/s] | solubility [4] [mM] | log K [5] | SMILES
6 | 40 |  |  |  |  | CCn1cc(C(=O)OCN(C)C(=O)OC)c(=O)c2ccc(C)nc21
4.2 | 156 |  |  |  |  | CCOC(=O)c1ccc(N(COC(=O)[C@@H](C)c2ccc3cc(OC)ccc3c2)C(=O)OC)cc1
4.2 | 49.8 |  |  |  |  | COC(=O)N(COC(=O)[C@@H](C)c1ccc2cc(OC)ccc2c1)c1ccc(OC)cc1
4.5 | 3.65 |  |  |  |  | COC(=O)N(C)COC(=O)Cc1c(C)n(C(=O)c2ccc(Cl)cc2)c2ccc(OC)cc12
4.2 | 2 | 4.21 | 5.28 | 5.16 (≈ 1710 µg/mL) | 1.67 | COC(=O)N(C)COC(=O)[C@@H](C)c1ccc2cc(OC)ccc2c1
